In experiment [1] the target is T1, ALK2 (GST-modified kinase domain ACVR1(145-509)) (Homo sapiens, UniProt Q04771).
T1 construct: N-terminally GST-modified kinase domain ACVR1(145-509); GST (N)
T1 sequence (Q04771 145-509): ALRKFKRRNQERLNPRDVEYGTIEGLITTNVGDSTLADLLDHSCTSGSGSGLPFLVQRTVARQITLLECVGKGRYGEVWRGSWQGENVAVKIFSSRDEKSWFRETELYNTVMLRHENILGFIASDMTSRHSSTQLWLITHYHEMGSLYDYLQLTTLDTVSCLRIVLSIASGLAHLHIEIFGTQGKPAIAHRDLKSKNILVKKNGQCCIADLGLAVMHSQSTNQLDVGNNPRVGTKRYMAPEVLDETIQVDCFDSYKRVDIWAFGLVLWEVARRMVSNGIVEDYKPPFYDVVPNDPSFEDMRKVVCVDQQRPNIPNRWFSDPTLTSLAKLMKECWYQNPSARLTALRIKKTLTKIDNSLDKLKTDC
Nature of the experiment: ALK2 kinase inhibition assay (33P-ATP filter binding, Reaction Biology). Particulars: casein substrate, 20 μM ATP (Km ATP), 120 min ambient temperature. The experiment is classed as biochemical. The procedure, abridged:
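Human ACVR1(145-509) kinase domain, N-terminal GST-tagged, with 1 mg/ml casein substrate and 33P-ATP in 20 mM HEPES pH 7.5, 10 mM MgCl2, 1 mM EGTA, 2 mM DTT, 1% DMSO. Incubated 120 min at ambient temperature, then spotted on P81 filters and washed. Background-subtracted activity taken as % of DMSO control; IC50 from curve fit.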

Experiment [2] has as its system ALK1-mediated SMAD1/5 phosphorylation in HUVEC cells. The experiment is described as follows: Cell-based immunofluorescence assay for ALK1-mediated SMAD1/5 phosphorylation in HUVEC cells. Particulars: Homo sapiens, 1.5 ng/ml BMP-9 with compound for 2 h, % nuclei with pSMAD1/5 signal, read-out: Smad 1/5 IC50. The procedure, abridged:
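Serum-starved primary HUVEC (≤5 passages) were treated with compound (1 nM-30 μM, 10 doses, 0.5% DMSO) plus 1.5 ng/ml BMP-9 for 2 h at 37° C. Cells were then fixed and immunostained for phospho-Smad1/5 (Ser463/465), and % positive nuclei were counted by confocal imaging. Data were normalised to DMSO (0%) and 10 μM reference inhibitor (−100%).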

Experiment [3] deals with T2, ALK1 (GST-modified kinase domain ACVRL1 (139-503)) (Homo sapiens, UniProt P37023).
T2 construct: N-terminally GST-modified kinase domain ACVRL1 (139-503); GST (N)
T2 sequence (P37023 139-503): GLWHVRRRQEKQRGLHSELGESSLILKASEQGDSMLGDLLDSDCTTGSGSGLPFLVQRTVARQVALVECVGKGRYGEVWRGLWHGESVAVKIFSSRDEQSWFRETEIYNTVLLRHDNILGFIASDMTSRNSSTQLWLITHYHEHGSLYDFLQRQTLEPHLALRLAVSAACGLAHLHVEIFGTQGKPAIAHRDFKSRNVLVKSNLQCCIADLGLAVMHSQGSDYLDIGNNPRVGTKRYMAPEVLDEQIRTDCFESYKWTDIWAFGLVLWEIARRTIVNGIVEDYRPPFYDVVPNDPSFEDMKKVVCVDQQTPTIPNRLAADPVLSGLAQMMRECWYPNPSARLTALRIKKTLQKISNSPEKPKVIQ
Nature of the experiment: ALK1 kinase inhibition assay (33P-ATP filter binding, Reaction Biology). The experiment is classed as biochemical. As to conditions: casein substrate, 100 μM ATP (Km ATP), 120 min ambient temperature. The procedure, abridged:
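GST-tagged kinase domain with 20 mg/ml casein substrate in 20 mM HEPES pH 7.5, 10 mM MgCl2, 1 mM EGTA, 2 mM DTT, 1% DMSO; 120 min at ambient temperature. Phosphorylation read by P81 filter binding; background-subtracted activity as percent of DMSO vehicle, curve-fit for IC50.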

Experiment [4] deals with T3, ALK5 (TGFβR1; GST-modified TGFBR1 (200-503)) (Homo sapiens, UniProt P36897).
T3 construct: Using GST-Modified TGFBR1 (200-503); GST
T3 sequence (P36897 200-503): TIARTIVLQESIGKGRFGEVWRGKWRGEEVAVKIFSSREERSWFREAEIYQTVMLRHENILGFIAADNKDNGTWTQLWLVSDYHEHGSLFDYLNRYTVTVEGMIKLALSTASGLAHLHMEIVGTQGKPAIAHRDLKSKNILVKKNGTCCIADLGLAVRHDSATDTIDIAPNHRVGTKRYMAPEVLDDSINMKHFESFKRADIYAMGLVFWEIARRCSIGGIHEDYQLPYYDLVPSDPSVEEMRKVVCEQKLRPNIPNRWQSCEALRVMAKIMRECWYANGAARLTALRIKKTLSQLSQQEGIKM
Nature of the experiment: ALK5 kinase inhibition assay (33P-ATP filter binding, Reaction Biology). Particulars: casein substrate, 200 μM ATP. The experiment is classed as biochemical. The essentials:
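Radiometric 33P-ATP filter-binding kinase assay using GST-tagged TGFBR1 residues 200-503, with 1 mg/ml casein as substrate and 200 μM ATP; IC50 determined.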

Each structure is given as a SMILES string.

As for `CN1CCCN(c2ccc3[nH]c(-c4cc(-c5ccnc6[nH]ccc56)c[nH]c4=O)nc3c2)CC1` [Compound A49, 3-[5-(4-Methyl-[1,4]diazepan-1-yl)-1H-benzimidazol-2-yl]-5-(1H-pyrrolo-[2,3-b]pyridin-4-yl)-1H-pyridin-2-one], the IC50 is 26 nM in experiment [1], 3700 nM in experiment [2], 1.4 nM in experiment [3] and 280 nM in experiment [4].
Regarding `O=c1[nH]cc(-c2cccc(CO)c2)cc1-c1nc2cc(N3CCCNCC3)ccc2[nH]1` [Compound A17, 3-(5-[1,4]Diazepan-1-yl-1H-benzimidazol-2-yl)-5-(3-hydroxymethyl-phenyl)-1H-pyridin-2-one], the IC50 was 25 nM in experiment [1], 2500 nM in experiment [2], 27 nM in experiment [3] and 3300 nM in experiment [4].
With `O=c1[nH]cc(-c2cccc3[nH]ccc23)cc1-c1nc2cc(N3CCNCC3)ccc2[nH]1` [Compound A48, 5-(1H-Indol-4-yl)-3-(5-piperazin-1-yl-1H-benzimidazol-2-yl)-1H-pyridin-2-one], the IC50 in experiment [1] is 22 nM; in experiment [2], 1000 nM; in experiment [3], 17 nM; in experiment [4] it was 1400 nM.

The record behind these values is patent US10179777B2, “3-(1H-benzimidazol-2-yl)-1H-pyridin-2-one derivatives” (MERCK PATENT GMBH, priority 2015, dated 2019).
